Experimental findings from patent US10941150B2, “Salt type and crystal type of 4h-pyrazolo [1, 5-alpha] benzimidazole compound and preparation method and intermediate thereof” (HUBEI BIO-PHARMACEUTICAL INDUSTRIAL TECHNOLOGICAL INSTITUTE …, priority 2015, dated 2021) are described below.

Read-outs that look alike come from different tables or passages of the source.

Data set [1] concerns MDA-MB-436 cells. Description: Anti-proliferation test (CCK8), singly and combined with TMZ. The class given is cell-based. The note with it: for IC50: 8 days; for PF50: PF50=[IC50 of the tested compound]/[IC50 at fixed TMZ concentration]. The protocol: (§1) MDA-MB-436 and MDA-MB-231 cells were seeded in a 96-well plate at a density of 500 and 2000 cell per well, respectively, and cultured overnight. The medium was RPMI 1640 containing 10% (v/v) FBS and 1% (v/v) penicillin-streptomycin. They were treated for 8 days after the compound to be tested was added. Cell viability was measured by CCK8 kit. Specifically, 10 µL CCK8 reagent was added to each well and incubated in a 5% CO2 incubator at 37° C. for 3 hours. After shaking for 10 minutes, the light absorbance (OD value) was measured with a Flexstation III (Molecular Device) at 450 nm.
(§2) For the test of compound combinations (in combination with DNA damage drugs), the PF50 value was used to calculate the synergistic effect of the drug. PF50=[IC50 of the tested compound]/[IC50 of the compound at a fixed DNA damage drug concentration]. Temozolomide (TMZ) was used as DNA damage drug in this study.

Data set [2] deals with MDA-MB-231 cells. The data set is described as above. The class given is cell-based. Conditions: for IC50: 8 days; for PF50: PF50=[IC50 of the tested compound]/[IC50 at fixed TMZ concentration]. The protocol:
as §1, §2

A short description of data set [3]: Solid stability test for Crystal type A under high temperature, high humidity and strong illumination. The class given is physicochemical. As for the experimental part:
The sample placed at 60° C. and 92.5% relative humidity was sealed with aluminum foil at the vial mouth, and the aluminum foil was pricked to ensure that the sample was fully exposed to the ambient air; the sample placed under strong illumination (5Klux) was sealed with a screw cap. The samples placed under different conditions were sampled and tested on the 10th day. The test results were compared with the initial test results on the 0th day.

The nature of data set [4]: Stability test for Crystal type A in different solvents. The class given is physicochemical. Conditions: for Results (crystalline state by XRPD): 3 days. The text has this:
After being stirred for 3 days, the samples were centrifuged and the solid in all samples were collected. XRPD was used to determine the crystalline state.

Where [5] appears, read: Homo sapiens, MDA-MB-436, 192 h, MDA-MB-436, combined with 25uM TMZ, average, read-out: IC50_Avg.
Where [6] appears, read: Homo sapiens, MDA-MB-436, 192 h, MDA-MB-436, combined with 25uM TMZ, run N=1, read-out: IC50_N = 1.
Where [7] appears, read: Homo sapiens, MDA-MB-436, 192 h, MDA-MB-436, combined with 25uM TMZ, run N=2, read-out: IC50_N= 2.
Where [8] appears, read: Homo sapiens, MDA-MB-436, 192 h, MDA-MB-436, used singly, average, read-out: IC50_Avg.
The mark [9] stands for this setting: Homo sapiens, MDA-MB-436, 192 h, MDA-MB-436, used singly, run N=1, read-out: IC50_N = 1.
The mark [10] stands for this setting: Homo sapiens, MDA-MB-436, 192 h, MDA-MB-436, used singly, run N=2, read-out: IC50_N= 2.
The mark [11] stands for this setting: MDA-MB-436, combined with 25uM TMZ.
The mark [12] stands for this setting: Homo sapiens, MDA-MB-231, 192 h, MDA-MB-231, combined with 1uM TMZ, average, read-out: IC50_Avg.
[13] abbreviates: Homo sapiens, MDA-MB-231, 192 h, MDA-MB-231, combined with 1uM TMZ, run N=1, read-out: IC50_N = 1.
Where [14] appears, read: Homo sapiens, MDA-MB-231, 192 h, MDA-MB-231, combined with 1uM TMZ, run N=2, read-out: IC50_N = 2.
The mark [15] stands for this setting: Homo sapiens, MDA-MB-231, 192 h, MDA-MB-231, used singly, average, read-out: IC50_Avg.
Where [16] appears, read: Homo sapiens, MDA-MB-231, 192 h, MDA-MB-231, used singly, run N=1, read-out: IC50_N = 1.
[17] abbreviates: Homo sapiens, MDA-MB-231, 192 h, MDA-MB-231, used singly, run N=2, read-out: IC50_N = 2.
Where [18] appears, read: MDA-MB-231, combined with 1uM TMZ.
Where [19] appears, read: Strong illumination (sealed), 5Klux, day 10.

On to `CC(C)N1CCC(C)(c2cnn3c2[nH]c2cc(F)cc(C(N)=O)c23)CC1` [Compound 1, 6-fluoro-3-(1-isopropyl-4-methylpiperidin-4-yl)-4H-benzo[4,5]imidazo[1,2-b]pyrazol-8-carboxamide], for which the “inhibitory effect on cell line” value in data set [1] (BRAC mutant MDA-MB-436 cell line) is “strong inhibitory effect”. The IC50 in data set [1] (setting [5]) turned out to be 0.007 µM; in data set [1] (setting [6]) it was 0.009 µM; in data set [1] (setting [7]), 0.005 µM; in data set [1] (setting [8]), 0.071 µM; in data set [1] (setting [9]), 0.089 µM; in data set [1] (setting [10]), 0.053 µM. Also, the IC50 is 4.86 µM in data set [2] (setting [12]); 3.96 µM in data set [2] (setting [13]); 5.75 µM in data set [2] (setting [14]); 5.83 µM in data set [2] (setting [15]); 6.21 µM in data set [2] (setting [16]); 5.44 µM in data set [2] (setting [17]). Also, the results for the PF50 in data set [1] (setting [11]) and in data set [2] (setting [18]) were 9.84 and 1.20, respectively. Besides, the synergistic effect result in data set [1] (combined with TMZ) is on record as “good synergistic effect”.
As for `C[C@]1(c2nc3c(C(N)=O)cccc3[nH]2)CCCN1` [ABT-888, Veliparib], the IC50 in data set [1] (setting [5]) was determined as 0.018 µM; in data set [1] (setting [6]), 0.026 µM; in data set [1] (setting [7]), 0.01 µM; in data set [1] (setting [8]) it was 0.305 µM; in data set [1] (setting [9]), 0.444 µM; in data set [1] (setting [10]) it was 0.167 µM. Further, the IC50 in data set [2] (setting [12]) was determined as 30.7 µM; in data set [2] (setting [13]), 25.5 µM; in data set [2] (setting [14]), 36 µM; in data set [2] (setting [15]), 40.5 µM; in data set [2] (setting [16]), 44 µM; in data set [2] (setting [17]), 37 µM. For the same compound, the figures for the PF50 in data set [1] (setting [11]) and in data set [2] (setting [18]) were 17.14 and 1.32, respectively.
With `CC(C)N1CCC(C)(c2cnn3c2[nH]c2cc(F)cc(C(N)=O)c23)CC1.O=C(O)/C=C\C(=O)O` [Crystal type A, 6-fluoro-3-(1-isopropyl-4-methylpiperidin-4-yl)-4H-benzo[4,5]imidazo[1,2-b]pyrazol-8-formamide.maleate monohydrate], the Appearance entry in data set [3] (60° C. (open), day 10) is “White powder”; in data set [3] (92.5% RH (open), day 10), “White powder”; in data set [3] (setting [19]), “White powder”; in data set [3] (initial, day 0), “White powder”. Also, the “Content (%)” value in data set [3] (60° C. (open), day 10) is 98.5%; in data set [3] (92.5% RH (open), day 10) it was 99.5%; in data set [3] (setting [19]) it was 99.4%; in data set [3] (initial, day 0) it was 98.9%. Also, the “Total impurities (%)” value came out at 0.11% in data set [3] (60° C. (open), day 10); 0.10% in data set [3] (92.5% RH (open), day 10); 0.11% in data set [3] (setting [19]); 0.10% in data set [3] (initial, day 0). Also, the “Appearance (3 days)” value is “Suspension” in data set [4] (Acetone, 25° C.); “Suspension” in data set [4] (Acetone:water = 1:2, 25° C.); “Suspension” in data set [4] (Acetonitrile:water = 1:1, 25° C.); “Suspension” in data set [4] (Ethanol, 25° C.); “Suspension” in data set [4] (Ethanol:water = 3:1, 25° C.); “Suspension” in data set [4] (Ethyl acetate, 25° C.). The “Appearance (3 days)” value was “Suspension” in data set [4] (Isopropanol, 25° C.); “Suspension” in data set [4] (Isopropanol:water = 1:1, 25° C.); “Suspension” in data set [4] (Methanol, 25° C.); “Suspension” in data set [4] (Methanol:water = 3:1, 25° C.). Also, the “Results (crystalline state by XRPD)” value is given as “Crystal type A” in data set [4] (Acetone, stirred at 25° C.); “Crystal type A” in data set [4] (Acetone:water = 1:2, stirred at 25° C.); “Crystal type A” in data set [4] (Acetonitrile:water = 1:1, stirred at 25° C.); “Crystal type A” in data set [4] (Ethanol, stirred at 25° C.); “Crystal type A” in data set [4] (Ethanol:water = 3:1, stirred at 25° C.); “Crystal type A” in data set [4] (Ethyl acetate, stirred at 25° C.). Besides, the “Results (crystalline state by XRPD)” value in data set [4] (Isopropanol, stirred at 25° C.) was “Crystal type A”; in data set [4] (Isopropanol:water = 1:1, stirred at 25° C.) it was “Crystal type A”; in data set [4] (Methanol, stirred at 25° C.) it was “Crystal type A”; in data set [4] (Methanol:water = 3:1, stirred at 25° C.) it was “Crystal type A”.
As for `Cn1nnc2c(C(N)=O)ncn2c1=O` [TMZ, temozolomide], the IC50 in data set [1] (setting [8]) came out at 111 µM; in data set [1] (setting [9]), 80.2 µM; in data set [1] (MDA-MB-436, used singly, average, read-out: IC50_Avg), 107 µM; in data set [1] (MDA-MB-436, used singly, run N=1, read-out: IC50_N = 1), 152 µM; in data set [2] (setting [15]), 4.17 µM; in data set [2] (setting [16]), 4.61 µM. Moreover, the IC50 came to 3.72 µM in data set [2] (setting [17]); 3.42 µM in data set [2] (MDA-MB-231, used singly, average, read-out: IC50_Avg); 3.33 µM in data set [2] (MDA-MB-231, used singly, run N=1, read-out: IC50_N = 1); 3.52 µM in data set [2] (MDA-MB-231, used singly, run N=2, read-out: IC50_N = 2).
